Reference: patent US20260224486A1, “DIANHYDROHEXITOL BASED IONIZABLE LIPIDS FOR NUCLEIC ACID DELIVERY” (SANOFI PASTEUR INC., priority 2023, published 2026)

Experiments:
[1] = Lipid nanoparticle size and polydispersity index by dynamic light scattering (Malvern Zetasizer); assay type: physicochemical; conditions: hEPO mRNA LNP, Process A, Cationic Lipid:DMG-PEG2000:Cholesterol:DOPE 40:1.5:28.5:30 mol %, N/P 4
Text: The lipid nanoparticles in the examples of the present invention were formulated using Process A of WO 2018/089801 (see, e.g., Example 1 and FIG. 1 of WO 2018/089801). Process A (“A”) relates to a conventional method of encapsulating mRNA by mixing mRNA with a mixture of lipids, without first pre-forming the lipids into lipid nanoparticles. In an exemplary process, an ethanolic solution of a mixture of lipids (cationic lipid, phosphatidylethanolamine, cholesterol, and polyethylene glycol-lipid) at a fixed lipid to mRNA ratio were combined with an aqueous buffered solution of target mRNA at an acidic pH under controlled conditions to yield a suspension of uniform LNPs. After ultrafiltration and diafiltration into a suitable diluent system, the resulting nanoparticle suspensions were diluted to final concentration, filtered, and stored frozen at −80° C. until use.
(§1) Lipid nanoparticle formulations of Table 1 were prepared by Process A. All of the lipid nanoparticle formulations comprised hEPO mRNA and the different lipids (Cationic Lipid: DMG-PEG2000: Cholesterol: DOPE) in mol % ratios of 40:1.5:28.5:30 (Cationic Lipid: DMG-PEG2000: Cholesterol: DOPE).
The Polydispersity Index (Pdl) of lipid nanoparticles can be determined by diluting the formulation in 10% trehalose at about 0.1 mg/ml mRNA concentration and then measuring the size on Malvern zetasizer. The lipid nanoparticle size can be obtained with Malvern Zetasizer Nano-ZS.
Dynamic light scattering (DLS) measurements were performed using a Malvern Instruments Zetasizer with a backscattering detector angle of 173° and a 4-mW, 633-nm He—Ne laser (Worcestershire, UK). The samples were analyzed by diluting in 10% Trehalose and measuring the size and Poly dispersity Index (PDI) in an optical grade polystyrene cuvette.

BALB/cJ mice = test: Delivery of hEPO mRNA by intramuscular administration of LNPs; serum hEPO by ELISA; assay type: in vivo, Mouse; conditions: for hEPO 6 Hr (ng/mL) Mean / hEPO 24 Hr (ng/ml) Mean: Table 3, isomannide-derived lipids; for hEPO 24 Hr (ng/ml) Mean: mouse serum 24 hours post single IM injection of 0.1 μg hEPO mRNA LNP
Procedure: In summary, lipid screening studies were conducted with female BALB/cJ mice 6-8 weeks of age. Mice were dosed with 0.1 μg in 30 μL of LNPs by a single intramuscular (IM) injection into the gastrocnemius leg muscle. Blood samples were taken 6 and 24 hours post injection and hEPO levels were measured in the blood serum of the mice using an ELISA assay according to the manufacture's protocol.
Treatment Regimen: On Day 1, animals from Groups 1-33 were dosed via intramuscular injection while under light isoflurane anesthesia according to the study design table above. Animals in Groups 1-33 were injected with EPO mRNA LNPs in the right leg only. Groups 1 and 17 animals received MC3 control.
Interim Sample Collections: Interim whole blood (^~50 μL) was collected by tail snip or saphenous vein at 6 and 24 hours post dose administration (±5%). Blood samples were collected into serum separator tubes, allowed to clot at room temperature for at least 10 minutes, centrifuged at ambient temperature at minimum 1000 g for 10 minutes and the serum was extracted. All serum samples were stored at nominally −70° C. until analysis hEPO by the Testing Facility. The results of the EPO analysis were included in the Data Submission.
Terminal Blood Collections: Whole blood was collected via cardiac puncture into serum separator tube, allowed to clot at room temperature for at least 10 minutes, centrifuged at ambient temperature at minimum 1000 g for 10 minutes and the serum was extracted. Serum samples were stored at nominally −70° C. until analyzed for hEPO by the Test Facility.
ELISA Assay: Human erythropoietin (hEPO) levels in sera samples were determined by ELISA kit (R&D systems, Cat #DEP-00) according to the manufactory instruction and the results were included in the Data Submission. The “shaker” protocol was used. The serum samples were diluted between 1:40 and 1:100.

[2] = mRNA encapsulation efficiency of lipid nanoparticles (RiboGreen assay); assay type: physicochemical; conditions: hEPO mRNA LNP, Process A, Cationic Lipid:DMG-PEG2000:Cholesterol:DOPE 40:1.5:28.5:30 mol %, N/P 4
Text: In embodiments, the lipid nanoparticle encapsulates a nucleic acid, optionally an mRNA encoding a peptide or protein. In embodiments, the lipid nanoparticle encapsulates an mRNA encoding a peptide or protein, optionally for use in a vaccine. In embodiments, the peptide is an antigen. As used herein, the phrase “encapsulation percentage” refers to the fraction of therapeutic agent (e.g. mRNA) that is effectively encapsulated within a liposomal-based vehicle (e.g. a lipid nanoparticle) relative to the initial fraction of therapeutic agent present in the lipid phase. In embodiments, the lipid nanoparticles have an encapsulation percentage for mRNA of at least 50%. In embodiments, the lipid nanoparticles have an encapsulation percentage for mRNA of at least 55%. In embodiments, the lipid nanoparticles have an encapsulation percentage for mRNA of at least 60%. In embodiments, the lipid nanoparticles have an encapsulation percentage for mRNA of at least 65%. In embodiments, the lipid nanoparticles have an encapsulation percentage for mRNA of at least 70%. In embodiments, the lipid nanoparticles have an encapsulation percentage for mRNA of at least 75%. In embodiments, the lipid nanoparticles have an encapsulation percentage for mRNA of at least 80%. In embodiments, the lipid nanoparticles have an encapsulation percentage for mRNA of at least 85%. In embodiments, the lipid nanoparticles have an encapsulation percentage for mRNA of at least 90%. In embodiments, the lipid nanoparticles have an encapsulation percentage for mRNA of at least 95%. In embodiments, the encapsulation percentage is calculated by performing the Ribogreen assay (Invitrogen) with and without the presence of 0.1% Triton-X 100.
as §1
The RiboGreen Assay is a fluorescence-based method for the determination of mRNA concentration (Total and Free) and % encapsulation using Quant-iT™ RiboGreen® RNA reagent in mRNA containing lipid nanoparticles.
• To each of the standards (Blank, mRNA-1, mRNA-2. mRNA-3, mRNA-4, mRNA-5) and Samples (free mRNA and total mRNA), add 1.0 mL of 200-fold Ribogreen Reagent Solution and gently mix by inversion. This is a 2× Dilution. • Add 200 μL of each standard and sample in triplicate using the reverse pipetting technique in a 96-well Costar Black with Clear Background Plate. Ensure no bubbles are present in the plate before the fluorescence reading. • Read the fluorescence signal using the below instrument parameters: • Read Type: Fluorescence, Bottom Read • Excitation: 485 nm; Cut-off: 515 nm; Emission: 530 nm • Plate Type: 96-well Costar Black with Clear Background
The average fluorescence from each calibration standard is plotted against the concentration to generate a linear calibration curve using the MS Excel software. The coefficient of determination (R^2) of calibration curve must be R^2>0.99.
[formula] • Where, • Y=average fluorescence value • m: slope • x: concentration (pg/mL) • c: y-intercept • Using the linear equation, calculate the concentration of free and total mRNA concentration in the test sample by replacing the y value in the equation with the average fluorescence value of each respective sample • Once the concentration is determined, the actual concentration in the sample can be back-calculated by multiplying the concentration in the test sample with the dilution factor (DF) as follows:
[formula] [formula] • Concentration of encapsulated mRNA can be determined by subtracting the concentration of free mRNA from the total mRNA. • % Encapsulation can then be calculated by taking the ratio of encapsulated mRNA over total mRNA and multiplying the result with 100.

[3] = Table 2, isosorbide-derived lipids, mouse serum 6 hours post single IM injection of 0.1 μg hEPO mRNA LNP
[4] = mouse serum 6 hours post single IM injection of 0.1 μg hEPO mRNA LNP
[5] = Table 4, further lipids, mouse serum 6 hours post IM injection of hEPO mRNA LNP as in example 3

| Structure (SMILES) | Polydispersity Index (PDI) [1] | Size (nm) [1] [nm] | Encapsulation efficiency (EE) % [2] [%] | hEPO 6 Hr (ng/ml) Mean (BALB/cJ mice; [3]) [ng/mL] | hEPO 6 Hr (ng/mL) Mean (BALB/cJ mice; [4]) [ng/mL] | hEPO 6 Hr (ng/ml) Mean (BALB/cJ mice; [5]) [ng/mL] | hEPO 24 Hr (ng/ml) Mean (BALB/cJ mice) [ng/mL] |
| --- | --- | --- | --- | --- | --- | --- | --- |
| CCCCCC/C=C\COC(=O)CCCCCC(O)CN(CCCC(=O)O[C@@H]1CO[C@H]2[C@@H]1OC[C@H]2OC(=O)CCCN(CC(O)CCCCCC(=O)OC/C=C\CCCCCC)CC(O)CCCCCC(=O)OC/C=C\CCCCCC)CC(O)CCCCCC(=O)OC/C=C\CCCCCC (stereo partly drawn) [Compound 16] | 0.11 | 84 | 77 | – | 9.4 | – | – |
| CCCCCCCCCCC(O)CN(CCCC(=O)O[C@@H]1CO[C@H]2[C@@H]1OC[C@H]2OC(=O)CCCN(CC(O)CCCCCC(=O)OC(CCCCCCCC)CCCCCCCC)CC1CCCC(=O)O1)CC(O)CCCCCCCCCC (stereo partly drawn) [Compound 19] | 0.13 | 94 | 74 | – | 10.7 | – | 5.35 |
| CCCCCCCCC(O)CN(CCCC(=O)O[C@H]1CO[C@H]2[C@@H]1OC[C@H]2OC(=O)CCCN(CC(O)CCCCCCCC)CC(O)CCCCCCCC)CC(O)CCCCCCCC (stereo partly drawn) [Compound 20] | 0.13 | 95 | 89 | 25.2 | – | – | – |
| CCCCCCCCCCCCCCC(O)CN(CCCC(=O)O[C@@H]1CO[C@H]2[C@@H]1OC[C@H]2OC(=O)CCCCN(CC(O)CCCCCCCCCC)CC(O)CCCCCCCCCC)CC(O)CCCCCCCCCCCCCC (stereo partly drawn) [Compound 8] | 0.13 | 91 | 95 | – | 25.7 | – | – |
| CCCCCCCCCCC(O)CN(CCCCC(=O)O[C@@H]1CO[C@H]2[C@@H]1OC[C@H]2OC(=O)CCCCN(CC(O)CCCCCCCCCC)CC(O)CCCCCCCCCC)CC(O)CCCCCCCCCC (stereo partly drawn) [Compound 4] | 0.16 | 78 | 94 | – | 43.2 | – | – |
| CCCCCCCCCCCOC(=O)CCCC(O)CN(CCCC(=O)O[C@@H]1CO[C@H]2[C@@H]1OC[C@H]2OC(=O)CCCN(CC(O)CCCCCCCCCC)CC(O)CCCCCCCCCC)CC(O)CCCCCC(=O)OC(CCCCCCCC)CCCCCCCC (stereo partly drawn) [Compound 9] | 0.1 | 114 | 91 | – | 30.7 | – | 19.8 |
| CCCCCCCCCCCOC(=O)CCCC(O)CN(CCCC(=O)O[C@@H]1CO[C@H]2[C@@H]1OC[C@H]2OC(=O)CCCN(CC(O)CCCCCC(=O)OC(CCCCCCCC)CCCCCCCC)CC(O)CCCC(=O)OCCCCCCCCCCC)CC(O)CCCCCC(=O)OC(CCCCCCCC)CCCCCCCC (stereo partly drawn) [Compound 11] | 0.1 | 120 | 94 | – | 36 | – | – |

Now from value to compound, other results behind:

| Polydispersity Index (PDI) [1] | Size (nm) [1] [nm] | Encapsulation efficiency (EE) % [2] [%] | Structure (SMILES) | hEPO 6 Hr (ng/ml) Mean (BALB/cJ mice; [3]) [ng/mL] | hEPO 6 Hr (ng/mL) Mean (BALB/cJ mice; [4]) [ng/mL] | hEPO 6 Hr (ng/ml) Mean (BALB/cJ mice; [5]) [ng/mL] | hEPO 24 Hr (ng/ml) Mean (BALB/cJ mice) [ng/mL] |
| --- | --- | --- | --- | --- | --- | --- | --- |
| 0.11 | 109 | 99 | CCCCCCCCCCCOC(=O)CCCC(O)CN(CCCC(=O)O[C@H]1CO[C@H]2[C@@H]1OC[C@H]2OC(=O)CCCN(CC(O)CCCCCC(=O)OC(CCCCCCCC)CCCCCCCC)CC(O)CCCC(=O)OCCCCCCCCCCC)CC(O)CCCCCC(=O)OC(CCCCCCCC)CCCCCCCC (stereo partly drawn) [Compound 33] | 17.6 | – | – | – |
| 0.14 | 74 | 95 | CCCCCCCCCCC(O)CN(CCCC(=O)N[C@H]1CO[C@H]2[C@@H]1OC[C@@H]2NC(=O)CCCN(CC(O)CCCCCCCCCC)CC(O)CCCCCCCCCC)CC(O)CCCCCCCCCC (stereo partly drawn) [Compound 52] | – | – | 72.7 | – |
| 0.16 | 106 | 94 | CCCCCCCCCCCCCCCCC(O)CN(CCCC(=O)O[C@H]1CO[C@H]2[C@@H]1OC[C@H]2OC(=O)CCCN(CC(O)CCCCCCCCCCCCCCCC)CC(O)CCCCCCCCCCCCCCCC)CC(O)CCCCCCCCCCCCCCCC (stereo partly drawn) [Compound 30] | 25.2 | – | – | – |
| 0.08 | 92 | 82 | CCCCCC/C=C\COC(=O)CCCCCC(O)CN(CCCC(=O)O[C@H]1CO[C@H]2[C@@H]1OC[C@H]2OC(=O)CCCN(CC(O)CCCCCC(=O)OC/C=C\CCCCCC)CC(O)CCCCCC(=O)OC/C=C\CCCCCC)CC(O)CCCCCC(=O)OC/C=C\CCCCCC (stereo partly drawn) [Compound 35] | 28.5 | – | – | – |
| 0.15 | 101 | 99 | CCCCCCCCCCCCC(O)CN(CCCC(=O)N[C@H]1CO[C@H]2[C@@H]1OC[C@@H]2NC(=O)CCCN(CC(O)CCCCCCCCCCCC)CC(O)CCCCCCCCCCCC)CC(O)CCCCCCCCCCCC (stereo partly drawn) [Compound 55] | – | – | 30.9 | – |
| 0.1 | 75 | 91 | CCCCCCCCCCC(O)CN(CCCC(=O)O[C@H]1CO[C@H]2[C@@H]1OC[C@H]2OC(=O)CCCN(CC(O)CCCCCCCC)CC(O)CCCCCCCC)CC(O)CCCCCCCCCC (stereo partly drawn) [Compound 22] | 34.1 | – | – | – |
